# Test results from patent US8524498B2, “Methods and compositions for homologous recombination in human cells” (The General Hospital Corporation, priority 2009, dated 2013).
# Key:
# hLR5 cells [1] = test: Conversion of hLR5 cells into stable pluripotent LD-hiPS colonies; type: cell-based, human; details: for enhancement of hLR5 conversion: titration curve of GSK3β inhibitor alone or in combination with LIF and/or PD98059, even at high concentration (not shown); for conversion frequency of hLR5 cells into LD-hiPS cells: LIF and MEK inhibitor PD98059 added during the conversion process, about 0.01% without; for increase in conversion frequency compared to FGF alone: LIF and PD98059 (50 μM) in combination; for hLR5 conversion rate: agent added alone to bFGF after doxycycline withdrawal, PD98059 50 μM
# Method: FIG. 9: Conversion rate of hLR5 cells into LD-hi PS cells is influenced by growth factors and inhibition of MEK signaling. Bar graph indicates the average number of stable pluripotent LD-hiPS colonies obtained after plating of 100.000 hLR5 cells in the presence of the indicated combinations of growth factors and MEK inhibitor (PD98059, 50 μM).
# FIG. 4A outlines the procedure of converting hLR5 cells into stable iPS cells. Clonal hLR5 cell lines were plated at a density of 5000 cells per cm^2 in media containing human LIF and doxycycline to support the continued expression of ectopic reprogramming factors. The next day, doxycycline was withdrawn from the hLR5 cultures and cells were further maintained in the presence of bFGF alone (FIG. 4A). […] These cells are referred to herein as hLR5-derived human iPS cells (LD-hiPS) to signify their prior hLR5 status. The conversion frequency of hLR5 cells into LD-hiPS cells was low, approximately 0.01%, yet similar to the conversion of murine metastable iPS cells of the NOD strain into stable EpiSC-like iPS cells (Hanna et al., 2009). […] Whether LIF and/or small molecule inhibitors could positively influence the conversion of hLR5 cells to a stable pluripotent state was analyzed.
# [2] = tested on: human pluripotent stem cells; test: Culture of human pluripotent stem cells with pharmacological inhibitors: passaging, proliferation, colony morphology; type: cell-based; details: for colony morphology of human pluripotent stem cells (ES cells and iPS cells): CHIR99021 (3 μM) together with PD98059 (50 μM)
# Description: FIGS. 12A-12C: Inhibition of PKA or GSK3β signaling enhances human pluripotent stem cell proliferation rate and improves the introduction of transgenes by homologous recombination. 12A. Cell proliferation curve. Cell numbers of human iPS cells were counted at the indicated time intervals. Plotted is the cumulative cell number over 37 days of culture. All cells were maintained in standard human iPS culture conditions (e.g., Maherali et al. Cell Stem Cell 2008, 3:340-345) with indicated additions: DMSO ([…], 0.1%); CHIR99021 (GSK3β inhibitor, 3 μM), Kenpaullone (GSK3β inhibitor, 5 μM); BIO (GSK3β inhibitor, 15 μM) and SB216763 (GSK3β inhibitor, 1 μM). 12B Colony morphology of human pluripotent stem cells cultured in the presence of the GSK3β inhibitor (3 μM) and PD98059 (50 μM). 12C Influence of signaling inhibitors on the introduction of a 10 kb transgene construct carrying a puromycin selection cassette. Puromycin selection was applied at 0.25 μg/mL 48 hours after electroporation of human iPS cells with 20 μg of the linearized plasmid.
# It was therefore sought to explore if small molecule inhibitors can affect human pluripotent stem cell colony morphology, proliferation and the ability to introduce transgenes using homologous recombination. Human pluripotent stem cells were maintained in standard medium (DMEM/F12 containing 20% knockout serum replacement, 2 mM L-Glutamine, 1% non-essential amino acids, 100 U of penicillin, 100 μg streptomycin, 0.1 mM beta-mercaptoethanol and 5 ng/mL bFGF, with or without pharmacological inhibitors.
# The inhibition of GSK3β can increase the frequency of homologous recombination in both iPS cells derived in the presence of the five reprogramming factors as described above, and in human ES cells. The human ES cells acquired a mouse ES cell-like morphology, became capable of single cell expansion, and became capable of trypsin passaging when incubated with a GSK3β inhibitor. The effect and the increase in homologous recombination could be facilitated by co-addition of MEK inhibitor(s).
# [3] = tested on: JAK-STAT signaling pathway; test: LIF stimulation of hLR5 cells: JAK-STAT pathway activation (Western blot, STAT3 immunostaining, gene expression); type: cell-based, human
# Description: FIGS. 2A-2F: LIF-responsiveness of hLR5 cells. 2A Western blot analysis of STAT3 phosphorylation in two independent hLR5 clones, with or without LIF-stimulation as indicated; 2B Immunostaining of STAT3 subcellular localization in hLR5 cells before (top panel) or after (bottom panel) LIF stimulation. Note the translocation of STAT3 from the cytoplasm (top panel) to the nucleus (bottom panel). Cell nuclei were visualized with DAPI; 2C Gene expression analysis of downstream target genes of the JAK/STAT signaling pathway in three hLR5 clones as well as human ES cell lines and conventional human iPS cell lines; 2D Flow cytometry analysis of SSEA 1 surface marker on hLR5 cells upon LIF removal. Lines indicate (i) LIF control, (ii) LIF substitution with bFGF, and (iii) no added growth factor; 2E Colony morphology of the hLR5 cells before (top panel) and after LIF substitution with bFGF; 2F Flow cytometry analysis of SSEA1 cell surface marker expression on hLR5 cells in the presence of small molecule inhibitors of the JAK/STAT and MEK/ERK signaling pathways. hLR5 cells were maintained in hLR5 media for 1 week in the presence of inhibitors. Grey shaded area: Jak-inhibitor, lines: MEK inhibitors (PD9805, PD1 84352 and PD0325901, as indicated). A line indicating a control (i.e., lacking inhibitor) is also present. […]
# hLR5 cells [4] = test: SSEA1 cell surface marker expression by flow cytometry on hLR5 cells cultured with pathway inhibitors; type: cell-based, human; details: flow cytometry after 1 week culture in hLR5 media with inhibitor; Jak-inhibitor I 0.6 μM, PD98059 50 μM, PD1 84352 0.8 μM, PD0325901 1 μM
# Description: FIGS. 2A-2F: LIF-responsiveness of hLR5 cells. 2A Western blot analysis of STAT3 phosphorylation in two independent hLR5 clones, with or without LIF-stimulation as indicated; 2B Immunostaining of STAT3 subcellular localization in hLR5 cells before (top panel) or after (bottom panel) LIF stimulation. Note the translocation of STAT3 from the cytoplasm (top panel) to the nucleus (bottom panel). Cell nuclei were visualized with DAPI; 2C Gene expression analysis of downstream target genes of the JAK/STAT signaling pathway in three hLR5 clones as well as human ES cell lines and conventional human iPS cell lines; 2D Flow cytometry analysis of SSEA 1 surface marker on hLR5 cells upon LIF removal. Lines indicate (i) LIF control, (ii) LIF substitution with bFGF, and (iii) no added growth factor; 2E Colony morphology of the hLR5 cells before (top panel) and after LIF substitution with bFGF; 2F Flow cytometry analysis of SSEA1 cell surface marker expression on hLR5 cells in the presence of small molecule inhibitors of the JAK/STAT and MEK/ERK signaling pathways. hLR5 cells were maintained in hLR5 media for 1 week in the presence of inhibitors. Grey shaded area: Jak-inhibitor, lines: MEK inhibitors (PD9805, PD1 84352 and PD0325901, as indicated). A line indicating a control (i.e., lacking inhibitor) is also present.
# Upon removal or substitution of LIF from the hLR5 culture media, SSEA1 expression waned (FIG. 2D). In addition, a change in colony morphology was observed following LIF withdrawal (FIG. 2E). In murine ES cells, LIF activates the JAK/STAT3 and the RAS/MEK/MAPK signaling pathways, which have opposing roles in murine ES cell maintenance and differentiation. […] Specific inhibitors of JAK/STAT signaling or the MAPK/MEK signaling pathway were used to examine the relative role of these pathways in hLR5 cells. SSEA1 cell surface marker expression was examined by flow cytometry upon culture of hLR5 cells in the presence of specific inhibitors for 1 week.
# Cells were collected by trypsinization and resuspended in ice-cold RPMI+0.5% FBS. Cells were incubated with the antibodies against the indicated surface antigens for 30 min at 4° C. The following antibodies were used for cell surface marker profiling: SSEA 1 (BD BIOSCIENCES™), TRA-1-81, TRA-1-60, SSEA3 and SSEA4 (MILLIPORE™). Cells were washed twice with RPMI/0.5% FBS and incubated with the relevant fluorophore-conjugated secondary antibody (BD BIOSCIENCES™) for 30 min at 4° C. Cells were washed twice with RPMI/0.5% FBS, resuspended in RPMI/0.5% FBS and analyzed on a BECTON-DICKINSON FACSCALIBUR™ cell analyzer.
molecule,measurement,setting,value
Cc1c[nH]c(-c2cnc(NCCNc3ccc(C#N)cn3)nc2-c2ccc(Cl)cc2Cl)n1 [CHIR99021],enhancement of hLR5 conversion,hLR5 cells [1],did not enhance hLR5 conversion
same,colony morphology of human pluripotent stem cells (ES cells and iPS cells),[2],adopted the characteristic tight dome-shaped morphology of murine ES cells
LIF: human LIF growth factor activating JAK-STAT signaling,conversion frequency of hLR5 cells into LD-hiPS cells,hLR5 cells [1],~0.1%
same,increase in conversion frequency compared to FGF alone,hLR5 cells [1],~8 fold
same,hLR5 conversion rate,hLR5 cells [1],slight increase
same,STAT3 nuclear translocation in hLR5 cells,"[3]; 15 minute stimulation with human LIF, immunofluorescence",rapid STAT3 nuclear translocation
same,STAT3 phosphorylation in hLR5 cells,"[3]; LIF stimulation, Western blot",robustly induces STAT3 phosphorylation
O=C(NOCC1CC1)c1ccc(F)c(F)c1Nc1ccc(I)cc1Cl [PD1 84352],expression of SSEA1 on hLR5 cells,hLR5 cells [4],did not affect cell surface marker expression
C[S+](C)[O-] [DMSO],trypsin passaging of human pluripotent stem cells,"[2]; standard medium with inhibitor, DMSO 0.1%",allowed trypsin passaging
same,pluripotent stem cell proliferation rate,"[2]; standard medium with inhibitor, DMSO 0.1%, cumulative cell number over 37 days",enhanced the pluripotent stem cell proliferation rate
Jak-inhibitor I,expression of SSEA1 on hLR5 cells,hLR5 cells [4],marked decrease
COc1cccc(-c2cc(=O)c3ccccc3o2)c1N [PD98059],conversion frequency of hLR5 cells into LD-hiPS cells,hLR5 cells [1],~0.1%
same,increase in conversion frequency compared to FGF alone,hLR5 cells [1],~8 fold
same,hLR5 conversion rate,hLR5 cells [1],slight increase
same,expression of SSEA1 on hLR5 cells,hLR5 cells [4],did not affect cell surface marker expression
same,colony morphology of human pluripotent stem cells (ES cells and iPS cells),[2],adopted the characteristic tight dome-shaped morphology of murine ES cells
O=C1Cc2c([nH]c3ccc(Br)cc23)-c2ccccc2N1 [Kenpaullone],enhancement of hLR5 conversion,hLR5 cells [1],did not enhance hLR5 conversion
O=C(NOC[C@H](O)CO)c1ccc(F)c(F)c1Nc1ccc(I)cc1F [PD0325901],expression of SSEA1 on hLR5 cells,hLR5 cells [4],did not affect cell surface marker expression
